Results reported in patent publication US10696615B2, “Prenylated hydroxystilbenes” (The University of Sydney, priority 2011, dated 2020).

Legend:
[1] = DPPH scavenging activity assay; details: FIG. 10, result in words
Method: The (1,1-diphenyl-2-picrylhydrazyl) DPPH assay is commonly used to test free radical scavenging ability of a compound or extracts of natural products by measurement of the reduction of DPPH* radicals at 517 nm. […] Upon reduction by an antioxidant or radical scavenger, the absorption disappears and the resulting decolorization by scavenging the radical is stoichiometric with respect to the number of electrons taken up (DPPH*+AH→DPPH:H+A*). The DPPH assay was carried out in a stepwise procedure as described below.
A methanolic solution of DPPH (0.1 mM) was stirred in a dark container at room temperature for 20 min. The solution was scanned between 400-750 nm to obtain a maximum wavelength (λmax, ˜510 nm). The concentration of the DPPH solution was adjusted with methanol to result in a maximum absorbance of approximately 1.0. Test samples at different concentrations and standard antioxidant solution (0.05 mL) were added to 0.95 mL of methanolic DPPH solution in a cuvette. Final concentrations of the test samples were 0.1, 1, 10, 50, 100 and 200 μM. The mixtures were shaken vigorously and allowed to stand in the dark for 30 min at room temperature. Absorbance of the resulting solution was measured at the maximum wavelength (˜510 nm). A decrease in absorbance indicated a free radical scavenging effect of the test samples. […]

[2] = biological target: FLT1 (Homo sapiens, UniProt P17948); assay: Kinase activity assay; assay type: biochemical; details: listed = inhibited more than 60%
Method: (§1) • Kinase-Glo(Plus)/ADP-Gloassay buffer 25 mMHEPES, 10 mMMgCl2, 0.01% Triton X-100, 100 μg/mLBSA, 2.5 mMDTT, pH7.4. • Caliper assay buffer 100 mMHEPES, 10 mMMgCl2, 100 μl/L Brij35 (30%), 1 mMDTT, pH7.4. Assay Substrates • MBP protein, UnactiveMEK1, Rbprotein were purchased from SignalChem. Poly(glu:tyr)(4:1) was purchased from Sigma. PIP2 was purchased from Cayman. Peptide substrates were synthesized in HD Biosciences, China. ATP was purchased from Sigma. KinaseGloPlus reagent, KinaseGloreagent and ADP Gloreagent were purchased from Promega Assay Procedure—Caliper Format
(§2) Mix Kinases, substrate, ATP and compound in 96-well assay plate, total volume is 50 μL. Incubate assay plate at 30° C. for 1 hour. Stop reaction by adding 20 μL of 35 mM EDTA and transfer 26 μL stopped reaction to 384-well assay plate. Read the assay plate on the plate reader.
(§3) Mix Kinases, substrate, ATP and compound in 384-well assay plate, total volume is 10 μl. Incubate assay plate at 30° C. for 1 hour. Add 10 μl/well of ADP GloReagent to the assay plate, incubate at 27° C. for 40 min.
(§4) Add 20 μl/well Detection Reagent to the assay plate, incubate at 27° C. for 30 min. Read the assay plate on the plate reader
(§5) Mix Kinase, substrate, ATP and compound in 384-well assay plate, total volume is 10 μl. Incubate assay plate at 30° C. for 1 hour. Add 10 μl/well KinaseGlo(Plus) reagent to the reaction mixture, and then incubate at 27° C. for 20 min. Read the assay plate on plate reader. • Hundred percent effect was performed without compound and enzyme, but containing ATP and substrate. • Zero percent effect was carried out without compound, but containing ATP, substrate and enzyme. • SB202190 is reference compounds for kinase p38β; Staurosporine(STSP) is reference compound for the remaining kinases. Results

[3] = biological target: CDK1/CyclinB (Homo sapiens, UniProt P06493); assay: Kinase activity assay; assay type: biochemical; details: listed = inhibited more than 60%
Method: as §1, §2, §3, §4, §5

[4] = biological target: KDR (Homo sapiens, UniProt P35968); assay: Kinase activity assay; assay type: biochemical; details: listed = inhibited more than 60%
Method: as §1, §2, §3, §4, §5

[5] = biological target: CDK4/CyclinD3 (Homo sapiens, UniProt P11802); assay: Kinase activity assay; assay type: biochemical; details: listed = inhibited more than 60%
Method: as §1, §2, §3, §4, §5

[6] = Acute toxicity study (maximum tolerated dose); assay type: in vivo; details: for Death days / Survivor/Total day 15: IP, single dose
Method: A single mouse is given a single IP injection of 400 mg/kg; a second mouse receives a dose of 200 mg/kg IP and a third mouse receives a single dose of 100 mg/kg IP. The mice are observed for a period of 2 weeks. They are sacrificed if they lose more than 20% of their body weight or if there are other signs of significant toxicity. If all 3 mice must be sacrificed, then the next 3 dose levels (50, 25, 12.5 mg/kg) are tested in a similar way. This process is repeated until a tolerated dose is found. This dose is then designated the maximum tolerated dose (MTD) and is used to calculate the amount of material given to experimental mice during anti-tumor testing. The mice are allowed ad libitum feed and water. Drug was dissolved in 100% DMSO at concentration of 200 mg/mL.

CDK1/CyclinB, sequence (P06493 whole entry, species assumed): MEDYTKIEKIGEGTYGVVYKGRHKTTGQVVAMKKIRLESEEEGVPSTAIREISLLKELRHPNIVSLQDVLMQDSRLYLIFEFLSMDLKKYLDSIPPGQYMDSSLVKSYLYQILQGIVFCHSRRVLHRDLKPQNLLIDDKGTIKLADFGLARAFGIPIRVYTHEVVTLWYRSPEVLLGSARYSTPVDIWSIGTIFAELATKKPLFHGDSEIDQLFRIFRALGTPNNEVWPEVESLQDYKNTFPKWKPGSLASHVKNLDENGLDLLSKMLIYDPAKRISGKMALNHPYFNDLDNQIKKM
CDK1/CyclinB, sequence (P14635 whole entry partner, species assumed): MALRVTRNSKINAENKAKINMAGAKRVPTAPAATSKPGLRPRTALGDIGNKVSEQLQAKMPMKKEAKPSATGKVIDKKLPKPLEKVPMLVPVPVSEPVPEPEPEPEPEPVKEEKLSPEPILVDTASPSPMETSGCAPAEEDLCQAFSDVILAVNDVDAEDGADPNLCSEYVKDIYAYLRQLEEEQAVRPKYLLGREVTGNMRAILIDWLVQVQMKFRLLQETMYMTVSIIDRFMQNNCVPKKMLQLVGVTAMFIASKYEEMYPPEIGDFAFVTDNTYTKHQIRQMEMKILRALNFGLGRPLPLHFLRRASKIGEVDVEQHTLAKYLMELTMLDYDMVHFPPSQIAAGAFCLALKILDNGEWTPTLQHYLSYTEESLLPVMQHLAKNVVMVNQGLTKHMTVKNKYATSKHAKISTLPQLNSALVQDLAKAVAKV
KDR, sequence (P35968 20-1356, species assumed): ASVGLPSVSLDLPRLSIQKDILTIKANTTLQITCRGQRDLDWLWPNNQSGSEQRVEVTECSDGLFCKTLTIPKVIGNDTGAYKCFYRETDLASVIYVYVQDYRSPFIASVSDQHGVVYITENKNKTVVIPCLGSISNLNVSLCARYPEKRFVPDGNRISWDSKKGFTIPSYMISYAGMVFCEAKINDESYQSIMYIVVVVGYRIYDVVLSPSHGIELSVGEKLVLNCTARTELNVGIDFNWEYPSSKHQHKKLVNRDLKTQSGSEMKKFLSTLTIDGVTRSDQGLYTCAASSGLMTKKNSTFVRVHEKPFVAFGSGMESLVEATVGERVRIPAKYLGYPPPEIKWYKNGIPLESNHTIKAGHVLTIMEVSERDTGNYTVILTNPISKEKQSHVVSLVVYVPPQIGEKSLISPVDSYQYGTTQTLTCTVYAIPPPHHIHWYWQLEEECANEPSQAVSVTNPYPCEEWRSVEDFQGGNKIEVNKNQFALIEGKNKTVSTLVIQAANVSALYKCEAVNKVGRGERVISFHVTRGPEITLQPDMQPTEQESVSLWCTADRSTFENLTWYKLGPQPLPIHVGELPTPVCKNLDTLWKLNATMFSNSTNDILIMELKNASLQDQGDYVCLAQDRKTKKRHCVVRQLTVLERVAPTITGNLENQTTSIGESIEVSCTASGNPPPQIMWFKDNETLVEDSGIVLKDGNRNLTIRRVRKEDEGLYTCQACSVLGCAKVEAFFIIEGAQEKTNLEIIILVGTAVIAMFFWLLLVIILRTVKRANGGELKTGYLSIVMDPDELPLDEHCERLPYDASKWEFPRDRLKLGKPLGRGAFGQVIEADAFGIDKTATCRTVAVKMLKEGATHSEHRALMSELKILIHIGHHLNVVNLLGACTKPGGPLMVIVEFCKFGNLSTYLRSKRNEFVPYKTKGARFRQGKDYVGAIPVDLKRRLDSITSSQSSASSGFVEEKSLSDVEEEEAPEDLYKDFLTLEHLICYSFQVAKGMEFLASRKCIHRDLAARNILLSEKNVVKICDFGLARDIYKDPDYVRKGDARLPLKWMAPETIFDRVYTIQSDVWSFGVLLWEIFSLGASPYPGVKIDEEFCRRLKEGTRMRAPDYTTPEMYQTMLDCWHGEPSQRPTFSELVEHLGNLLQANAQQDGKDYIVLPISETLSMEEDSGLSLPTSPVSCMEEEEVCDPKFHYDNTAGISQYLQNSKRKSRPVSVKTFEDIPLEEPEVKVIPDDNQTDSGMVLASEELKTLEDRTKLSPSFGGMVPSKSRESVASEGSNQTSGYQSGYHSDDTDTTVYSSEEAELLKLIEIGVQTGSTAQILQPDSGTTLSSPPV
CDK4/CyclinD3, sequence (P11802 whole entry, species assumed): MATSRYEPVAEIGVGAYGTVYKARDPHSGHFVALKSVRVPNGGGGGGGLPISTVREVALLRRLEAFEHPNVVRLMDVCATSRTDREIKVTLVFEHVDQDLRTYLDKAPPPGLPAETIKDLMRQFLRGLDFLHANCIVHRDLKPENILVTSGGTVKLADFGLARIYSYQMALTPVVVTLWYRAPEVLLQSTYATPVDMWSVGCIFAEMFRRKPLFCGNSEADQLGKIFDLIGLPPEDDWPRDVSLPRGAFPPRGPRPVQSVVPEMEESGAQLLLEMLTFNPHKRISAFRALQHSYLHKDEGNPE
CDK4/CyclinD3, sequence (P30281 whole entry partner, species assumed): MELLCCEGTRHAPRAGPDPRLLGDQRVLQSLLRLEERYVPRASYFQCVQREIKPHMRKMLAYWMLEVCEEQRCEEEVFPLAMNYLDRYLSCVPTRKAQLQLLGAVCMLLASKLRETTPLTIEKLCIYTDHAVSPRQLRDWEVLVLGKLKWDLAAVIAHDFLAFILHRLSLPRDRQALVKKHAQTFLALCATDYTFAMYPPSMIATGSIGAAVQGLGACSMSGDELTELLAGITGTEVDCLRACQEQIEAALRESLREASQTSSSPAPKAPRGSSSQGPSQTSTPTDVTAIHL
FLT1, sequence (P17948 27-1338, species assumed): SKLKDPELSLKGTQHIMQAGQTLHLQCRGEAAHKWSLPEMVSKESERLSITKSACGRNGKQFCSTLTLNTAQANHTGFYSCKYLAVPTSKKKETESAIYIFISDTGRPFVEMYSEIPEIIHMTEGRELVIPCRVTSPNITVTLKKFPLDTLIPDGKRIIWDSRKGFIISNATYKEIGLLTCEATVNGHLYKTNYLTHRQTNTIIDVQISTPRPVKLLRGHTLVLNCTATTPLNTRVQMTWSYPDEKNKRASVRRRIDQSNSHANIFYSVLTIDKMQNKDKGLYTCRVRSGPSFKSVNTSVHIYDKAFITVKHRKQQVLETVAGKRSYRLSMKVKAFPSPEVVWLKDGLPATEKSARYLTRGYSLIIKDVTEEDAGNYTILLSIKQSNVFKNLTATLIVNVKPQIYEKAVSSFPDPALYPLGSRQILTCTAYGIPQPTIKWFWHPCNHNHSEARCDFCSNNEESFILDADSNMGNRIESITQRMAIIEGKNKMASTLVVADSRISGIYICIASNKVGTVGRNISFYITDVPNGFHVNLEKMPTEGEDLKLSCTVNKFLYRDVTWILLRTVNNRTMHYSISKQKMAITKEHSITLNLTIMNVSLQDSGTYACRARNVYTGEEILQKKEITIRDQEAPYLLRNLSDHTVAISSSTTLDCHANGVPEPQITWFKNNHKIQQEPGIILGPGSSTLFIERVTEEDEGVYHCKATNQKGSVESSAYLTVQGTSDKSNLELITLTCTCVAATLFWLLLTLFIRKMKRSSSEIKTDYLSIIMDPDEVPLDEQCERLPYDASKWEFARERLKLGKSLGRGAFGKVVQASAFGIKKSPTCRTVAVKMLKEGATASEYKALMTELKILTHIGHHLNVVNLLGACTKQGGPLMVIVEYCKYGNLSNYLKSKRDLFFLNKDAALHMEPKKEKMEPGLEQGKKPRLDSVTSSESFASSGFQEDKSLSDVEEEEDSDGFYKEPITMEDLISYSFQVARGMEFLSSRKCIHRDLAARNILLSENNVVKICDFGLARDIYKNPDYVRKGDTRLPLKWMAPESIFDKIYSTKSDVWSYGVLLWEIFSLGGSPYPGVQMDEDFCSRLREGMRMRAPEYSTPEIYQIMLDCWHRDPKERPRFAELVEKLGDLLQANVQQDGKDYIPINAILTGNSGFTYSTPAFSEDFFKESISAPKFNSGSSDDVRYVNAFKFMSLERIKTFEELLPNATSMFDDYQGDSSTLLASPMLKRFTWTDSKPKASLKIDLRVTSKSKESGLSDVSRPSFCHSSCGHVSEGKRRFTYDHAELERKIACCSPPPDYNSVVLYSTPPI

Compound: CC(C)=CCc1c(O)cc(/C=C/c2ccc(O)c(O)c2)c(CC=C(C)C)c1O [USYDS7, (E)-2,4-di(3-methyl-2-buten-1-yl)-3,3′,4′,5-tetrahydroxystilbene]
- effect on free radical scavenging [1]: strong effect

Compound: COc1cc(/C=C/c2cc(O)cc(O)c2CC=C(C)C)ccc1O [USYDS10, (E)-2-(3-methyl-2-buten-1-yl)-3,4′,5-trihydroxy-3′-methoxystilbene]
- Kinases that inhibited more than 60% [2]: FLT1
- Kinases that inhibited more than 60% [3]: CDK1/CyclinB
- Kinases that inhibited more than 60% [4]: KDR

Compound: COc1cc(/C=C/c2cc(O)cc(OC)c2CC=C(C)C)ccc1O [USYDS1, (E)-2-(3-methyl-2-buten-1-yl)-4′,5-dihydroxy-3,3′-dimethoxystilbene]
- Kinases that inhibited more than 60% [5]: CDK4/CyclinD3
- MTD at 2 weeks ([6]; in vivo, mouse, single IP injection, observed 2 weeks): 100 mg/kg
- Death days ([6]; mouse, 100 mg/kg/dose): None
- Survivor/Total day 15 ([6]; mouse, 100 mg/kg/dose): 1/1
- Death days ([6]; mouse, 200 mg/kg/dose): 1
- Survivor/Total day 15 ([6]; mouse, 200 mg/kg/dose): 0/1
- Death days ([6]; mouse, 400 mg/kg/dose): 1
- Survivor/Total day 15 ([6]; mouse, 400 mg/kg/dose): 0/1
- mammalian toxicity ([6]; result in words): low mammalian toxicity
